This assay addresses ThyX (Rv2754c), flavin-dependent thymidylate synthase (Mycobacterium tuberculosis, UniProt P9WG57). The experiment in a line: intrinsic fluorescence quenching, modified Stern-Volmer. It is filed as binding. To be noted: 303 K, 5 µM protein, n ~1, double-log. The source says: intrinsic fluorescence quenching, modified Stern-Volmer on ThyX (Rv2754c), flavin-dependent thymidylate synthase

Experimental findings from paper PMC12584634, “Carglumic acid and mesalazine as potential anti-mycobacterial agents: a spectroscopic study for repurposing drugs against Mycobacterium tuberculosis targeting its essential enzyme ThyX” (Microbiology Spectrum, 2025) are described below.

SMILES strings stand for the structures.

ThyX (Rv2754c), flavin-dependent thymidylate synthase, sequence (P9WG57 whole entry, looked up): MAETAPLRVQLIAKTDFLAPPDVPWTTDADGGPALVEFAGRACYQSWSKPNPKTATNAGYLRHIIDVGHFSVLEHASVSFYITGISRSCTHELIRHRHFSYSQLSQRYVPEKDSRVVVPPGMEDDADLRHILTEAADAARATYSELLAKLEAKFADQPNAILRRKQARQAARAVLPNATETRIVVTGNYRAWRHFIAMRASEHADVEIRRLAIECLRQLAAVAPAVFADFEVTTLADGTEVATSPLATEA

On to `NC(=O)N[C@@H](CCC(=O)O)C(=O)O` [carglumic acid], for which the “Ka (× 10^6 mol^-1)” value (PBS pH 7.4, excitation 280 nm) is on record as 4.28 × 10^6 mol^−1.

Turning to `Nc1ccc(O)c(C(=O)O)c1` [mesalazine], the “Ka (× 10^6 mol^-1)” value (PBS pH 7.4, excitation 280 nm) is 4.73 × 10^6 mol^−1.

`Nc1ccc(C(=O)O)c(O)c1` [para-amino salicylic acid, reference compound]: the “Ka (× 10^6 mol^-1)” value (positive control, text prints unit as M^−1s^−1) was 3.44 × 10^6 mol^−1.
